This is an account of results in patent publication US20060160897A1, “Topical Use of Valproic Acid for the Prevention or Treatment of Skin Disorders” (priority 2003, published 2006).

Series [1] concerns HaCaT cells. Kind of series: MTT assay, growth of human immortalized keratinocytes. It counts as cell-based. The procedure: MTT assay: This calorimetric assay detects the formation of formazan which is proportional to the number of cells present. Tissue culture medium containing drugs was removed and 200 μl of DME containing 2 mg/ml MTT ((3-4, 5-dimethyl thiazol-2yl) 2,5-diphenyltetrazolium bromide) was added to each well. 96-well plates were incubated at 37 ° C., and 10% CO2 for 30 minutes. Medium containing MTT was then removed and the cells were washed once with PBS. Following removal of the PBS, 200 μL DMSO was added to each well and plates were placed on a rotating platform shaker for 5 minutes. Results were obtained by reading the absorbance at a wavelength of 550 nm using a spectrophotometer. Results are expressed as percentages setting the control as 100%.
FIG. 1 graphically depicts the results of growth assays performed on human immortalized keratinocytes (HaCaT cells), treated for three days with the indicated compounds. Drugs were added on the same day of plating (day 0). The MTT assay (to measure cell proliferation) was carried out on day 3. Various combinations of the drugs were used in the growth assays.
Cells were plated in wells on day 0. […] The MTT assay was carried out on day 3. Various combinations of the drugs were also used in the growth assays. […] Thus, the combinatorial activity of these two drugs must be explained via synergistic activity of this treatment.
Drugs were added on the same day of plating (day 0). The MTT assay (to measure cell proliferation) was carried out on the third day. […] Thus, this combinatorial activity of these two drugs must be explained via synergistic activity of this treatment.
A general note: Tetrazolium assays rely on reduction of a dye to a coloured formazan, in cell work by metabolically active cells.

The subject of another series is IL-2 and TNF-α. Kind of series: IL-2 and TNF-α ELISA, supernatants of stimulated peripheral blood lymphocytes. It counts as cell-based, human. The settings on record: PBLs, FIG. 15; for concentration at which inhibition of IL-2 and TNF-α expression was maximal: CD3/CD28; for IL-2 secretion, dose-response / TNF-α secretion, dose-response: increasing concentrations two hours, CD3 and CD28 mAbs 24 hours. The procedure:
(§1) Monocyte and macrophage depleted peripheral blood mononuclear cells were obtained from consenting adults via separation using Ficoll-Hypaque. The peripheral blood mononuclear cells (PBMC) fraction was washed and seeded in 9 cm petri dishes. After an incubation of 2 hours at 37° C. to remove most of the monocytes, macrophages, and B-cells, the non-adherent cells were collected and cultured in 175 cm^2 flasks for 2 days. Cells were harvested and adjusted to 3 million cells per ml. Aliquots of 500 μl were transferred to each well of 24-well flat bottom plates. Peripheral blood lymphocytes (PBL's) were treated with various concentrations of HDAC inhibitors as indicated. After a 2 hours incubation time at 37° C. cells were stimulated with phorbol 12-myristate 13-acetate (PMA)/ionomycin (Ion) or activated via T cell receptor (TCR/CD3) complex with 10 μg/ml anti-CD3 mAb (OKT3) and 2.5 μg/ml anti-CD28 mAb. After 24 hours at 37° C. the supernatant was removed and frozen for cytokine assays. Cell pellets were lysed and total RNA was isolated using the RNeasy mini kit from Qiagen.
To perform ELISAs, supernatants of treated and untreated PBL's were collected and IL-2 as well as TNF-α were measured using the Duo Set ELISA Development System (R&D Systems) as described by the manufacturer.
For orientation: An ELISA detects its analyte on a solid surface through an enzyme-linked reagent.

Series [2] deals with inflammatory cytokines. In words: Semiquantitative RT-PCR of cytokine mRNA, PMA/Ion stimulated peripheral blood lymphocytes. The class given is cell-based, human. The settings on record: for cytokine expression (mRNA): PMA/Ion stimulation, FIG. 13 A and B. How it is done:
as §1
(§2) One microgram of total RNA was transcribed to cDNA by standard methods using reverse transcriptase and an oligo-dT primer (Invitrogen). For semiquantitative PCR, 2 μl of cDNA was amplified by PCR using specific primers. Primers for PCR were synthesized by MWG and are as follows: […]

In series [3] the test system is stage III/IV non-small cell lung cancer. The conditions noted are these: monotherapy, phase II (Keer et al., 2002); cited from earlier work.
The next series deals with F9 cells. The conditions noted are these: cited from earlier work.
The subject of series [4] is inflammatory cytokines. Kind of series: Semiquantitative RT-PCR of cytokine mRNA, LPS stimulated keratinocytes. The class given is cell-based, human. The settings on record: HaCaT, 200 nM TSA or 5 mM VPA 4 hours, then LPS 100 ng/ml 24 hours, FIG. 12A. How it is done:
Human immortalized keratinocytes (HaCaT cells) were seeded at a density of 2.5 million cells per ml into 75 cm^2 flasks. […] After 24 hours at 37° C. cells were lysed and total RNA was isolated using the RNeasy mini kit from Qiagen.
as §2

In the next series the test system is PPARδ. The settings on record: cited from earlier work.
Series [5] deals with Basal Cell Carcinoma. In words: Topical treatment of BCC patients with Tazarotene and VPA. The class given is in vivo, human. The settings on record: 4 lesions pre-treated with Tazarotene alone for at least 16-20 weeks. How it is done: 10 lesions were treated: 8 Superficial BCCs and 2 pigmented BCC. […] Lesions were evaluated clinically and photographed every two weeks.
Series [6] has as its system Basal Cell Carcinoma. The settings on record: Tazarotene used alone; cited from earlier work.
In series [7] the test system is HaCaT cells. In words: Apoptosis assay, flow cytometry of Sub-G1 DNA containing cells. The settings on record: drugs day 1, assay day 2, combinations VPA 1 mM + Tazarotene 1 or 2 μM, FIG. 5. The class given is cell-based, human. The procedure: Apoptosis assays: Apoptosis was measured by a Beckton Dickinson FACScalibur flow cytometer by analysing the percentage of Sub-G1 DNA containing cells. 10000 events were recorded for each sample. The amplification scale was linear for all parameters. Photomultiplier tension was set as to place the peak DNA content corresponding cells in G0/G1 at channel 300 in the FL2-H vs SCC—H graphs. Cells showing a less than peak DNA content (hypodiploid cells) and high SSC—H (granular high condensed cells) were regarded as apoptotic. The experiments were repeated three times in duplicate. Error bars represent 1 standard deviation.
Cells were plated in 35 mm diameter wells on day 0. Drugs were added on day 1. The apoptosis assay was carried out on day 2. […] Thus, the combinatorial activity of these two drugs must be explained via synergistic activity of this treatment.
Background: Flow cytometry measures light scatter and fluorescence of single cells or particles in a stream.

In a further series the test system is T-cell lymphomas. The conditions noted are these: phase II trial (Piekarz et al., 2001); cited from earlier work.
The test system of series [8] is acute promyelocytic leukemia. The settings on record: one PML-RAR patient with multiple relapses after retinoic acid (Warrell et al., 1998); cited from earlier work.
Where [9] appears, read: vs untreated stimulated control.
Setting [10] is: PBLs preincubated 2 hours, PMA/Ion 24 hours, FIGS. 12B, 13.

`O=c1[nH]cc(F)c(=O)[nH]1` [5-FU, 5-Fluorouracil]: in the series on HaCaT cells [1] (MTT on the third day, 5 μM or 10 μM 5-FU and 1 mM VPA, FIG. 3), the “cell growth (MTT assay)” value was “inhibited growth”.

For the molecule `O=C(CCC1CCCC1)NO` [G2M-701], in the series on IL-2 and TNF-α, the “concentration at which inhibition of IL-2 and TNF-α expression was maximal” value (from here on “concentration at which inhibition”) is 6 µM; the “IL-2 secretion, dose-response” value is recorded as “dose-dependent inhibition”; the “TNF-α secretion, dose-response” value was “dose-dependent inhibition”. Besides, in the series on inflammatory cytokines [2], the “cytokine expression (mRNA)” value is given as “can modulate cytokine expression”.

For `O=C(CCC1CCCCC1)NO` [G2M-702], in the series with IL-2 and TNF-α, the “concentration at which inhibition” value amounted to 3 µM; the “IL-2 secretion, dose-response” value is on record as “dose-dependent inhibition”; the “TNF-α secretion, dose-response” value is “dose-dependent inhibition”. Besides, the “cytokine expression (mRNA)” value in the series on inflammatory cytokines [2] is given as “can modulate cytokine expression”.

In the case of `O=C(/C=C/C1CCCCC1)NO` [G2M-707], in the series with IL-2 and TNF-α, the “concentration at which inhibition” value was 1 µM; the “IL-2 secretion, dose-response” value is “dose-dependent inhibition”; the “TNF-α secretion, dose-response” value is reported as “dose-dependent inhibition”. Besides, in the series with inflammatory cytokines [2], the “cytokine expression (mRNA)” value is reported as “can modulate cytokine expression”.

Regarding `CCCC(=O)OCOC(=O)C(C)(C)C` [Pivanex, Pivaloyloxymethyl butyrate], the clinical activity entry in [3] was “demonstrating activity”.

Turning to `O=C(CCCCCCC(=O)Nc1ccccc1)NO` [SAHA, suberoylanilide hydroxamic acid], the “cytokine expression (mRNA)” value with inflammatory cytokines [2] is on record as “can modulate cytokine expression”.

Regarding `CC(/C=C/C(=O)NO)=C\[C@@H](C)C(=O)c1ccc(N(C)C)cc1` [TSA, trichostatin A], the F9 cell differentiation entry in the series on F9 cells is “induces the same type of F9 cell differentiation as VPA”. For the same molecule, the “IFN-γ mRNA transcript” value in the series on inflammatory cytokines [4] is recorded as “virtually unaffected”. In the series with inflammatory cytokines [4] (setting [9]), the “IL-6 mRNA level” value is on record as “significant decrease” and the “TNF-α mRNA level” value is given as “significant decrease”. In the series with inflammatory cytokines [2] (setting [10]), the “IL-4 mRNA transcripts” value was “significantly reduced” and the “IL-6 mRNA transcripts” value was “only moderate effects”. Moreover, the PPARδ activation entry in the series on PPARδ was “activates”.

In the case of `CCOC(=O)c1ccc(C#Cc2ccc3c(c2)C(C)(C)CCS3)nc1` [Tazarotene], the “cell growth (MTT assay)” value in the series with HaCaT cells [1] (treated three days, MTT on day 3, combinations VPA 1 mM + Tazarotene 1 or 2 μM, FIG. 1) was “inhibited cell growth”. For the same molecule, the “tumor diameter under Tazarotene alone” value in the series with Basal Cell Carcinoma [5] is “no reduction of tumor diameter”. Also, in the series on Basal Cell Carcinoma [6], the “share of BCC's in which regression is induced” value is reported as ~50%; the “side effects (such as pain and itching)” value was “several unwanted side effects”; the time to regression is 12-24 weeks. In the series with HaCaT cells [7], the “apoptosis (Sub-G1 DNA containing cells)” value is reported as “induces apoptosis”.

Take `C/C=C1\NC(=O)[C@H]2CSSCC/C=C/[C@H](CC(=O)N[C@H](C(C)C)C(=O)N2)OC(=O)[C@H](C(C)C)NC1=O` [depsipeptide]: the clinical outcome in the series on T-cell lymphomas is “used successfully”.

As for phenylbutyrate, the “clinical outcome of leukemia” value in [8] is on record as “complete remission of the leukemia”.
